# US9163049B2, “Medicament comprising a reducing alkyl-sugar monomer for the treatment of inflammatory disorders” (PIERRE FABRE DERMO-COSMETIQUE, priority 2003, dated 2015)
# How the values were obtained:
# HBrMEC = assay: Adhesion of lymphocytes on non-activated endothelial cells HBrMEC; format: cell-based
# Experimental: (§1) Adhesion is carried out in vitro under static conditions. The endothelial cells were cultured in wells in order to obtain a monolayer. The cells were pretreated for 5 hours in the presence or absence of alkyl-rhamnosides. As dodecyl-rhamnoside required a content of 0.1% by volume to be soluble in the culture media, a control containing 0.1% glycerol was also analyzed.
# (§2) The suspension of labeled lymphocytes was at a concentration making it possible to obtain a ratio of 5 lymphocytes per endothelial cell. Adhesion was carried out for 30 minutes at ambient temperature. The label binds irreversibly to the lipids of the plasma membrane of the cells without affecting the biological properties of the membrane or cellular viability.
# (§3) The adhesion of the lymphocytes on the endothelial cells was quantified by flow cytometry.
# HAPEC = assay: Adhesion of lymphocytes on non-activated endothelial cells HAPEC; format: cell-based
# Experimental: as §1, §2, §3
# [1] = tested on: proliferation of lymphocytes in auricular lymphatic ganglia; details: in vivo
# Excerpt: (§7) This test determines the sensitizing capacity of the test substance by measuring the proliferation of lymphocytes in auricular lymphatic ganglia. The proliferation of lymphocytes will be measured by determining the incorporation of tritiated methyl thymidine.
# HMLNEC = assay: Adhesion of lymphocytes on non-activated endothelial cells HMLNEC; format: cell-based
# Experimental: as §1, §2, §3
# [2] = tested on: PGE2 released by the NHK stimulated by PMA; assay: Assay of the PGE2 released by the NHK stimulated by PMA; format: cell-based, human; details: for Percentage of inhibition of the release of PGE2: NHK + PMA 1 ng/ml, 24 hours
# Experimental: Assay of the PGE2 released by the NHK stimulated by PMA.
# Alkyl-rhamnosides were evaluated as an inhibitor of the release of PGE2 in cellular supernatants. These products were placed in the presence of the NHK at the same time as the PMA at 1 ng/ml. Each condition tested was evaluated for stimulation on 4 wells of NHK.
# The results summarized in Table 5 below represent the mean PGE2 concentration values (pg/ml), after 24 hours of treatment, given in each of the cellular supernatants, stimulated or not, and reported in a quantity of cells expressed in μg.
# [3] = tested on: proliferation of lymphocytes in auricular lymphatic ganglia; assay: Sensitizing capacity by the LLNA method (local lymph node assay)
# Excerpt: as §7
# HSkMEC = assay: Adhesion of lymphocytes on non-activated endothelial cells HSkMEC; format: cell-based; details: for adhesion between lymphocytes and endothelial cells, Medium: HSkMEC, Medium (no TNF), control = 1.000
# Experimental: (§4) The influence of alkyl-rhamnosides on adhesion between lymphocytes and […] endothelial cells, in particular the line of endothelial cells arising from the skin (HSkMEC), was evaluated. These cells were placed in the presence of a strong activator, TNF-α.
# as §1, §2, §3
# [4] = tested on: endothelial cells (appendix, brain microvascular, mesenteric lymphatic ganglia, peripheral lymphatic ganglia, skin microvascular); assay: Cytotoxicity test (MTT) on endothelial cell lines; format: cell-based
# Excerpt: (§5) MTT [3-(4,5-[…])-2,5-diphenyl tetrazolium bromide] Reduction Technique (Sold by Sigma).
# (§6) This technique corresponds to a colorimetric test allowing quantification of living, metabolically active cells in a non-radioactive manner. MTT is a cationic molecule which is bound to the membranes of mitochondria in a potential-dependant fashion. On the level of the mitochondria, MTT will be reduced to formazan blue by mitochondrial dehydrogenase. The living cells are thus colored blue, in contrast with the dead cells which remain transparent. The measure of viability is then carried out by measurement of the optical density using an automatic reader.
# Endothelial cells were placed in culture, immortalized and stabilized in their phenotype. The cell lines studied were appendix endothelial cells, brain microvascular endothelial cells, mesenteric lymphatic ganglia endothelial cells, peripheral lymphatic ganglia endothelial cells and skin microvascular endothelial cells.
# The cytotoxicity test was carried out by means of a biochemical test on the transformation of a tetrazolium salt, MTT. […] Viability is indeed always greater than 85%, and this is true for all of the cells lines studied.
# keratinocytes = assay: Toxicity test: viability of keratinocytes; format: cell-based; details: for % viability: compared to control 100%
# Excerpt: as §5, §6
# XTT Tetrazolium Salt Reduction Technique.
# This is a technique allowing quantification of cellular proliferation and of the number of living (metabolically active) cells, without the incorporation of radioactive isotopes. XTT, yellow in color, is a cationic molecule which is bound to the membranes of mitochondria in a potential-dependant fashion, as does MTT.
# On the level of the mitochondria, XTT will be reduced to formazan (orange) by mitochondrial tetrazolium reductase. […] Indeed, the reduction product is soluble within the cell. The method is thus faster. Living cells, in the absence and presence of a treatment become colored, in contrast with dead cells which remain colorless. The level of formazan product is detected with the spectrophotometer at a wavelength of 450 nm and is directly proportional to the number of metabolically active cells.
# Keratinocytes were isolated and placed in culture from human skin biopsies arising from anonymous donors following a plastic surgery procedure. Measurements of optical density (absorbance) of the 4 wells treated with the same product concentration were averaged. This average was compared with the average of the measurements obtained for the 4 control wells (Student's t-test comparison of means significant difference at 95% if p<0.05 and 99% if p<0.01).
# The viabilities of the treated cells are expressed as a percentage compared to the control (untreated cells) of 100% (OD treated/OD control×100).
# HPLNEC.B3 = assay: Adhesion of lymphocytes on non-activated endothelial cells HPLNEC.B3; format: cell-based
# Experimental: as §1, §2, §3
# [5] = tested on: HSkMEC activated with TNF-α; assay: Adhesion between lymphocytes and TNF-α activated endothelial cells (HSkMEC); format: cell-based; details: for Control/TNF ratio / adhesion between lymphocytes and endothelial cells, TNF: HSkMEC; for adhesion between lymphocytes and endothelial cells, TNF: control in medium = 1.000
# Experimental: as §4, §1, §2, §3
# The results of adhesion between lymphocytes and activated endothelial cells, summarized in Table 5 below, arise from groups of three adhesion tests.
# reconstituted epidermis = assay: Cutaneous irritant potential on reconstituted epidermis; format: cell-based; details: Rh-C5 concentration 30%, Triton 4%
# Excerpt: The evaluation of cutaneous irritant potential on reconstituted epidermis is an alternative to animal experimentation. The principle is based on the evaluation of the irritant potential of the product tested by: • the study of cytotoxicity by quantification of the release of lactate dehydrogenase (LDH) and by reduction of MTT to […], • the study of inflammation markers by quantification of the release of interleukins and IL8.
molecule,measurement,setting,value
"CCCCCOC1O[C@@H](C)[C@H](O)[C@@H](O)[C@H]1O (stereo partly shown) [Rh-C5, pentyl-rhamnoside]",effect on adhesion of lymphocytes,HBrMEC; 1.1 mM,no effect or a very slight effect
same,effect on adhesion of lymphocytes,HAPEC; 1.1 mM,no effect or a very slight effect
same,Conclusion (sensitizing capacity),[1],Not sensitizing
same,sensitizing capacity,[1],not sensitizing
same,increase in adhesion of lymphocytes compared to rhamnose,HMLNEC; 1.1 mM,96.7%
same,Percentage of inhibition of the release of PGE2,[2]; 0.02 mg/ml,29%
same,Percentage of inhibition of the release of PGE2,[2]; 0.05 mg/ml,61%
same,Percentage of inhibition of the release of PGE2,[2]; 0.1 mg/ml,64%
same,Percentage of inhibition of the release of PGE2,[2]; 1 mg/ml,89%
same,DPM/Ganglion,[3]; Concentration 1: 3%,1240.2 DPM/Ganglion
same,RATIO,[3]; Concentration 1: 3%,0.7
same,DPM/Ganglion,[3]; Concentration 2: 15%,1041.1 DPM/Ganglion
same,RATIO,[3]; Concentration 2: 15%,0.6
same,DPM/Ganglion,[3]; Concentration 3: 30%,797.3 DPM/Ganglion
same,RATIO,[3]; Concentration 3: 30%,0.5
same,inhibiting effect on the adhesion of lymphocytes compared to rhamnose,"HSkMEC; 1.1 mM, non-activated HSkMEC",37.3%
same,"adhesion between lymphocytes and endothelial cells, Medium",HSkMEC,1.900
same,Viability,[4]; all of the cells lines studied,greater than 85%
same,toxicity,[4]; endothelial cell lines,no toxicity
same,concentrations at which cytotoxicity is exhibited,keratinocytes,greater than 2 mg/ml
same,% viability,keratinocytes; 0.1 mg/ml,94%
same,% viability,keratinocytes; 1 mg/ml,74%
same,% viability,keratinocytes; 2 mg/ml,53%
same,% viability,keratinocytes; 5 mg/ml,40%
same,increase in adhesion of lymphocytes,HPLNEC.B3; 1.1 mM,37.9%
same,Control/TNF ratio,[5],1.6
same,"adhesion between lymphocytes and endothelial cells, TNF",[5],3.100
"CCCCCCCCCCCOC1O[C@@H](C)[C@H](O)[C@@H](O)[C@H]1O (stereo partly shown) [Rh-C11, undecyl-rhamnoside]",Percentage of inhibition of the release of PGE2,[2]; 0.01 mg/ml,28%
same,Percentage of inhibition of the release of PGE2,[2]; 0.02 mg/ml,28%
same,activity (inhibition of PGE2 release),[2]; in the range of 20 μg/ml,activity comparable to pentyl-rhamnoside
same,% viability,keratinocytes; 10 μg/ml,81%
same,% viability,keratinocytes; 100 μg/ml,17%
same,% viability,keratinocytes; 250 μg/ml,11%
same,% viability,keratinocytes; 500 μg/ml,30%
"C[C@H](O)[C@H](O)[C@@H](O)[C@@H](O)C=O [Rhamnose, rhamnose, reference compound]","adhesion between lymphocytes and endothelial cells, Medium",HSkMEC,1.630
same,% viability,keratinocytes; 0.001 mg/ml,95%
same,% viability,keratinocytes; 0.01 mg/ml,100%
same,% viability,keratinocytes; 0.1 mg/ml,98%
same,% viability,keratinocytes; 1 mg/ml,104%
same,cytotoxicity,keratinocytes; even for the highest concentrations,does not exhibit cytotoxicity
same,Control/TNF ratio,[5],1.5
same,"adhesion between lymphocytes and endothelial cells, TNF",[5],2.450
CCCCCCCCCCCCOC1O[C@@H](C)[C@H](O)[C@@H](O)[C@H]1O (stereo partly shown) [dodecyl-rhamnoside],effect on adhesion of lymphocytes,HBrMEC; 1.5 mM,no effect
same,increase in adhesion of lymphocytes,HAPEC; 1.5 mM,44.1%
same,effect on adhesion of lymphocytes,HMLNEC; 1.5 mM,no effect
same,decrease of the adhesion of lymphocytes,"HSkMEC; 1.5 mM, non-activated HSkMEC",34.2%
same,"adhesion between lymphocytes and endothelial cells, Medium",HSkMEC,3.200
same,effect on adhesion of lymphocytes,HPLNEC.B3; 1.5 mM,no effect
same,inhibition of adhesion,"[5]; 1.5 μM, endothelial cells",63%
same,Control/TNF ratio,[5],0.59
same,"adhesion between lymphocytes and endothelial cells, TNF",[5],1.900
Triton [reference compound],IL1α ratio,reconstituted epidermis; 24 hours of application,36.0
same,IL8 ratio,reconstituted epidermis; 24 hours of application,3.7
same,LDH ratio,reconstituted epidermis; 24 hours of application,124.7
same,MTT % viability,reconstituted epidermis; 24 hours of application,3.0%
same,IL1α ratio,reconstituted epidermis; 72 hours of application,7.2
same,IL8 ratio,reconstituted epidermis; 72 hours of application,0.9
same,LDH ratio,reconstituted epidermis; 72 hours of application,77.3
same,MTT % viability,reconstituted epidermis; 72 hours of application,1.5%
same,Classification (cutaneous irritant potential),reconstituted epidermis,irritant
octadecyl-rhamnose [Rh-C18],Percentage of inhibition of the release of PGE2,[2]; 0.02 mg/ml,2%
